Laboratory results: patent US20080159962A1, “Use of Inhibitors of the Renin-Angiotensin System for the Treatment of Lung Injuries” (priority 2005, published 2008)
Read-outs that look alike come from different tables or passages of the source.

Tests used:
Assay type in all cases: in vivo
BK2 = target: T1, BK2 (Mus musculus, UniProt P32299); experiment: Bradykinin receptor inhibitor study (BK2) in acid aspiration-induced ALI of ace2 KO mice; settings: acid-treated ace2 KO mice, 1.5 mg/kg i.p. 30 min before surgical procedures, 3 hrs (FIG. 17)
T1 construct: from tissue; host or cells: live ace2 KO mice, lung elastance read-out
T1 sequence (P32299 1-392): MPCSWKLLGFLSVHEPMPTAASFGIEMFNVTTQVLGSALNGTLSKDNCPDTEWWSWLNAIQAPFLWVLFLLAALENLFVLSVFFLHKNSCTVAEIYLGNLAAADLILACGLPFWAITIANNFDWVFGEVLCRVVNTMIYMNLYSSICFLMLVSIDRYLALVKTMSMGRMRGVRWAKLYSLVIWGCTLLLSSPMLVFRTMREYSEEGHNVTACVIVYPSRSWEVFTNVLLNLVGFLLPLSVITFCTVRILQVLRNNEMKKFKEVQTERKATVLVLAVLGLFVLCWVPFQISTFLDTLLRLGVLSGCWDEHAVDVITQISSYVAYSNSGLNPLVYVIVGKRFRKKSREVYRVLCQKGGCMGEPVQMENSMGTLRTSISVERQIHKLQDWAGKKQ
Protocol: (§1) Murine acid aspiration-induced lung injury model: For acid aspiration-induced ALI, 2.5-3 month old mice were anaesthetized with ketamin (75 mg/kg) and xylazine (20 mg/kg) i.p., tracheostomized and ventilated with a volume control constant flow ventilator (Voltek Enterprises). Volume recruitment manoeuvre (VRM) (25 cmH2O, 3 sec) was performed to standardize volume history and measurements were made as baseline. After intratracheal instillation of HCl (pH=1.5; 2 ml/kg), followed by a VRM (35 cmH2O, 3 seconds), animals were ventilated for 3 hrs (FIO2 1.0). Total PEEP (PEEPt) and plateau pressure (Pplat) were measured at the end of expiratory and inspiratory occlusion, respectively, and elastance was calculated as Pplat minus PEEPt)/VT every 30 minutes during the ventilation periods.
Bradykinin receptors inhibitor studies: Ace2 KO mice (2.5-3 months old) received the BK1 inhibitor (des Arg HOE, Sigma, 1.5 mg/kg), the BK2 inhibitor (HOE 140, Sigma, 1.5 mg/kg), or control vehicle i.p. 30 min before surgical procedures. After HCl instillation, animals were randomized into groups: (1) ace2 KO, acid, vehicle control; (2) ace2 KO, acid, BK1 inhibitor; (3) ace2 KO, acid, BK2 inhibitor. Animals were then ventilated for 3 hrs and analyzed as above.

AT1R [1] = target: T2, AT1R (Mus musculus, UniProt P29754); experiment: AT1R inhibitor study in acid-induced ALI of ace2 KO mice; settings: acid-treated ace2 KO mice
T2 sequence (P29754 whole entry): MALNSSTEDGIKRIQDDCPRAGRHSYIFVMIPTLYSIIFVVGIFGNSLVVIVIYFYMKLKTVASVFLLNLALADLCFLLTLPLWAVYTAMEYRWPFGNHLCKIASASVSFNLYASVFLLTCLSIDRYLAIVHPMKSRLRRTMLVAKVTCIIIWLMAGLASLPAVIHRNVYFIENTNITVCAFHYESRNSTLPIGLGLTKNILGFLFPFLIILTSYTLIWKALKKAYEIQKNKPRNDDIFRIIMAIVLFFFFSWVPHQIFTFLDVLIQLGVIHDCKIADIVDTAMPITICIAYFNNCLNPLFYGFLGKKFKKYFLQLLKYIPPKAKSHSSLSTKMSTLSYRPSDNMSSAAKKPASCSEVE
Protocol: as §1, with “Experimental murine ALI models:” for “Murine acid aspiration-induced lung injury model:”, “Enterprises, Canada).” for “Enterprises).”, “Saline-treated groups served as controls. […] All animals were monitored throughout an 18-hrs recovery period. […] In all experimental ALI models, total” for “Total”, “periods. […]” for “periods.”
Assessment of blood oxygenation, pulmonary oedema, and pulmonary vascular permeability: At the end of the experiments, blood samples were obtained from the left heart ventricle and PaO2 was measured (Ciba-Corning Model 248, Bayer, Leverkusen, Germany) to assess arterial blood oxygenation as an indicator for respiratory failure. To assess pulmonary oedemas, the lung wet/dry weight ratios were calculated. […]

AT1R [2] = target: T2, AT1R
AT2R = target: T3, AT2R (Mus musculus, UniProt P35374); experiment: AT2R inhibitor study in acid-induced ALI of ace2 KO mice; settings: acid-treated ace2 KO mice, 15 mg/kg i.p., 3 hrs (FIG. 10b)
T3 construct: from tissue; host or cells: live ace2 KO mice, lung elastance read-out
T3 sequence (P35374 1-363): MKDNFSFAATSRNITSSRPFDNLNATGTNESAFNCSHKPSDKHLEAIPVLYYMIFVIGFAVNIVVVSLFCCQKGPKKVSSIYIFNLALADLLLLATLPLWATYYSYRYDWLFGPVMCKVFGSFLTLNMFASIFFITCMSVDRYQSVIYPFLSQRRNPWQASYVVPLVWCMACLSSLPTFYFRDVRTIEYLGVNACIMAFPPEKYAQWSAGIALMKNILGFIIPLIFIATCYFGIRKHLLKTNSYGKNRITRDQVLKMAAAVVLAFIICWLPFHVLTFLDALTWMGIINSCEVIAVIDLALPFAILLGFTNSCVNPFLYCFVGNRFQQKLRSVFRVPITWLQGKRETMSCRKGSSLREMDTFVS
Protocol: as §1, with “Experimental murine ALI models:” for “Murine acid aspiration-induced lung injury model:”, “Enterprises, Canada).” for “Enterprises).”, “Saline-treated groups served as controls. […] All animals were monitored throughout an 18-hrs recovery period. […] In all experimental ALI models, total” for “Total”, “periods. […]” for “periods.”
AT1R/AT2R inhibitor studies: Mice (2.5-3 months old) received the AT1R inhibitor Losartan (15 mg/kg), the AT2R inhibitor PD123.319 (15 mg/kg), or control vehicle i.p. 30 min before surgical procedures. […] Animals were then ventilated for 3 hrs and analyzed as above.

Structure (SMILES): NC(N)=NCCC[C@@H](N)C(=O)N[C@@H](CCCN=C(N)N)C(=O)N1CCC[C@H]1C(=O)N1C[C@H](O)C[C@H]1C(=O)NCC(=O)N[C@@H](Cc1cccs1)C(=O)N[C@@H](CO)C(=O)N1Cc2ccccc2C[C@@H]1C(=O)N1[C@H](C(=O)N[C@@H](CCCN=C(N)N)C(=O)O)C[C@@H]2CCCC[C@@H]21 [BK2 inhibitor, DArg[Hyp^3,Thi^5,DTic^7,Oic^8]-bradykinin]
- lung failure assessed by pulmonary elastance (BK2): improved the lung failure

Structure (SMILES): CCCCc1nc(Cl)c(CO)n1Cc1ccc(-c2ccccc2-c2nn[nH]n2)cc1 [Losartan]
- severity of ALI (lung elastance) (AT1R [1]; 15 mg/kg i.p. 30 min before surgical procedures, 3 hrs (FIG. 10b)): attenuated the severity of ALI
- acid-induced pulmonary oedema (wet to dry weight ratio) (AT1R [1]; 15 mg/kg, 3 hrs (FIG. 16b)): attenuated acid-induced pulmonary oedema
- acute severe lung injury (lung elastance) (AT1R [2]; acid plus Spike-Fc challenged WT mice, 15 mg/kg (FIG. 5c)): attenuates SARS Spike-mediated severe acute lung injury
- acute severe lung injury (lung elastance) (AT1R [2]; mouse, in vivo): attenuated acute severe lung injury
- pulmonary oedema (wet to dry weight ratio) (AT1R [2]; mouse, in vivo): attenuated pulmonary oedema

Structure (SMILES): Cc1cc(Cn2cnc3c2C[C@@H](C(=O)O)N(C(=O)C(c2ccccc2)c2ccccc2)C3)ccc1N(C)C [PD123.319]
- severe acute lung injury phenotypes (lung elastance) (AT2R): had no apparent effect
